Test results taken from patent US8765712B2, “Agent for preventing and treating pityriasis versicolor” (Justus-Liebig-Universitaet Giessen, priority 2009, dated 2014).
“Also recorded” adds a separate entry of the source.

How the values were obtained:
[1] = system: M. furfur CBS 1878; experiment: Agar diffusion assay on pigment-inducing medium (p-agar) with TRP as sole nitrogen source; format: cell-based, Malassezia furfur
Experimental: The pigment-inducing medium (p-agar) is composed of (for 1 liter medium)
After autoclaving for 30 min at 1 bar, the following is added:
At approx. 50° C., the following heat-labile component is added:
The pH value is approximately pH 5.0.
Each 25 ml of the medium are poured into petri dishes with a diameter of 10 cm. A suspension of M. furfur CBS 1878 (approx. 5 inoculation loops of a strain previously grown on Dixon's agar) is suspended in 1 ml aq. dest., transferred to the p-agar and spread by tilting the plate. […] The pigment composition can be determined after extraction and separation via thin layer chromatography.
For this purpose, M. furfur CBS 1878 is spread on the surface of an agar plate with pigment-inducing medium as describe above, subsequently 4 mm-holes are punched into the agar using a sterile punch. […] The agar diffusion assay is performed with transaminase inhibitor e.g. aminooxyacetate (Sigma) in water, which is adjusted to pH 5 with 1 n NaOH. Concentrations are 0.05 molar top left; 0.1 molar top right; 0.25 molar bottom left, and 0.5 molar bottom right.

[2] = system: M. furfur; experiment: Agar diffusion assay on complete medium Dixon's agar; conditions: 4 days, concentrations as in FIG. 1 (0.05-0.5 molar)
Experimental: For this purpose, an identical experimental approach as described above is chosen and the fungus is grown on a complete medium Dixon's agar for 4 days. Transaminase inhibitor, e.g. aminooxyacetate solution (e.g. Sigma) or D-cycloserine, DL-cycloserine, L-cycloserine or a derivative thereof such as e.g. terizidone, is added in above mentioned concentrations at the beginning of the experiment.

[3] = system: pityriasis versicolor; experiment: Topical application in humans; format: in vivo
Excerpt: Transaminase inhibitors such as aminooxyacetate and/or cycloserine, e.g. D-cycloserine, DL-cycloserine, L-cycloserine or one of the derivatives thereof like e.g. terizidone are suitable for an application in humans. A topical application of 5% in unguentum emulsificans aquosum, applied over several days, is well tolerated without side effects. For prophylactic purposes, a 0.05-5% w/w preparation is used, preferably as shaking mixture/suspension cutanea aquosa, aqueous, oily, or alcoholic suspension, emulsion, paste, cream, ointment, spray, lipophilic gel, hydrophilic gel or plaster, shampoo, bath additive or mud, since the entire body should be treated if possible. For prophylaxis, application is performed daily up to several-day intervals. The same applies to the therapeutic use. D-cycloserine is preferably used in aqueous solution, e.g. 0.2 molar, adjusted to pH 7 with e.g. phosphate buffer.

Row | SMILES | suppression of pigment formation in vitro [1] | suppression of pigment formation in vivo in humans [3] | further results
1 | O=C1NOCC1/N=C/c1ccc(/C=N/C2CONC2=O)cc1 (stereo not drawn) [terizidone] | inhibit pigment formation | – | –
2 | Cl.NOCC(=O)O.NOCC(=O)O [aminooxyacetate, O-(carboxymethyl)hydroxylamine hemihydrochloride] | – | – | pigment synthesis (tryptophan-dependent pathway) ([1]; 4-days old culture, TRP as sole nitrogen source, 20 μl in 4 mm holes, 0.05, 0.1, 0.25, 0.5 molar in water, pH 5, hemihydrochloride): completely inhibited; also recorded: abolished; growth of the fungus ([1]; pigment-inducing medium, TRP as sole nitrogen source, 0.05-0.5 molar, pH 5): inhibited; effect of specific inhibition of transamination on complete medium [2]: no effect
3 | NC1CONC1=O (racemic) [DL-cycloserine] | comparable suppression | comparable suppression | –
4 | N[C@H]1CONC1=O [L-cycloserine] | comparable suppression | comparable suppression | –
5 | N[C@@H]1CONC1=O [D-cycloserine] | comparable suppression | comparable suppression | healing of lesions ([3]; aqueous solution 0.2 molar, pH 7 (phosphate buffer), twice a day, after three days): complete healing of lesions; side effects / tolerability ([3]; aqueous solution 0.2 molar, pH 7, twice a day): without side effects and is very well tolerated
